{"source": "patent US20040254170A1", "about": "“Method of treating functional bowel disorders” (Dynogen, Inc., priority 2003, published 2004)", "key": {"[1]": {"biological_target": "T1, noradrenaline transporter ([^3H]NA uptake) (Rattus norvegicus, UniProt Q9WTR4)", "T1 construct": "The [^3H]NA uptake assays are performed on the cortical and hypothalamic synaptosomes; from tissue; host or cells: rat hypothalamic and cortical synaptosomes (P2 fraction)", "T1 sequence (Q9WTR4 1-597)": "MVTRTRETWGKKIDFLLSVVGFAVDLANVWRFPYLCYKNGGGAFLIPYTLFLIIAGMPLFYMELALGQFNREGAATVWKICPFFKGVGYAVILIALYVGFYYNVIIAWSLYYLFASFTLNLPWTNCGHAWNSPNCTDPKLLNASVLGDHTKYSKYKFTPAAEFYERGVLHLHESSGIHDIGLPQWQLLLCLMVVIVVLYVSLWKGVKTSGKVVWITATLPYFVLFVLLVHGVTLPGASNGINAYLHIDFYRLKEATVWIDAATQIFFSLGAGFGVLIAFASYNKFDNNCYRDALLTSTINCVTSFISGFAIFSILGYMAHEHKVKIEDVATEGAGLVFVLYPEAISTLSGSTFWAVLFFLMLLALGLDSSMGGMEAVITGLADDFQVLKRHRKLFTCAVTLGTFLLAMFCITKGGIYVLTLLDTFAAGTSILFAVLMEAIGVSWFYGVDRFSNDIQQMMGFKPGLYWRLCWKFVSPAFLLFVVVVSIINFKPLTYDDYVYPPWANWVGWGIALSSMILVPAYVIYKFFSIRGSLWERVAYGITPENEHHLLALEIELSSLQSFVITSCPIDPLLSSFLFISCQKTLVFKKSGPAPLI", "conditions": "read-out: Ki, inhibition of [3H]NA uptake, cited from earlier work"}, "5-HT3 receptor": {"biological_target": "T2, 5-HT3 receptor (Mus musculus, UniProt P23979)", "T2 construct": "host or cells: N1E-115 mouse neuroblastoma cells", "T2 sequence (P23979 24-489)": "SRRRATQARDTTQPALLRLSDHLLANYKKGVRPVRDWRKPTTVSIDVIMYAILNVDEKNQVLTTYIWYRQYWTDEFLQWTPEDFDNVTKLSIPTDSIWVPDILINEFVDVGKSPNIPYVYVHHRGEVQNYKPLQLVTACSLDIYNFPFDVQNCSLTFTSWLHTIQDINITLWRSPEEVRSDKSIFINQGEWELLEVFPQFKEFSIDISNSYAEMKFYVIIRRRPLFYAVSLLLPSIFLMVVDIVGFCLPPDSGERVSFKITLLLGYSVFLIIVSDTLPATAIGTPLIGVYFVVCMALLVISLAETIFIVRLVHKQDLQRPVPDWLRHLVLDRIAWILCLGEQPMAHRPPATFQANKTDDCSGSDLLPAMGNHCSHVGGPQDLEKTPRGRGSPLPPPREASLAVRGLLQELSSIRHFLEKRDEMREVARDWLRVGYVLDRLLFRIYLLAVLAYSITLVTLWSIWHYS", "conditions": "radioligand binding; read-out: Ki, affinity for the 5-HT3 receptor; cited from earlier work"}, "[2]": {"tested_on": "acetic acid sensitized male Fisher rats", "experiment": "Visceromotor response to colorectal distension, acetic acid-induced colonic hypersensitivity", "type": "in vivo, rat", "conditions": "for visceromotor response (number of abdominal contractions) to CRD compared to vehicle: all doses i.p. (ondansetron 1, 5, 10 mg/kg; nisoxetine 3, 10, 30 mg/kg), all distension pressures", "description": "The visceromotor behavioral response to colorectal distension was measured by counting the number of abdominal contractions recorded by a strain gauge sutured onto the abdominal musculature as described in Gunter et al., Physiol. […] A 5 cm latex balloon catheter inserted via the anal canal into the colon was used for colorectal distensions. Constant pressure tonic distensions were performed in a graded manner (15, 30 or 60 mmHg) and were maintained for a period of 10 min and the numbers of abdominal muscle contractions were recorded to measure the level of colonic sensation. A 10 min recovery was allowed between distensions.\nJ. Physiol. […] In the present study, a low concentration of acetic acid (1.5 ml, 0.6%) was administered intracolonically to sensitize the colon without causing histological damage to the colonic mucosa as described in previous studies (Gunter et al., supra).\nInjection volume was 0.2 mL using 100% propylene glycol as the vehicle. Three consecutive colorectal distensions at 15, 30 or 60 mmHg applied at 10-min intervals were recorded. Visceromotor responses were evaluated as the number of abdominal muscle contractions recorded during the 10-min periods of colorectal distension.\nAdult male rats were used in the study. […] Specifically, rats were anesthetized with Isoflurane (2%) and were instrumented with a strain gauge force transducer for recording of abdominal muscle contractions. A latex balloon and catheter were inserted 11 cm into the colon. The animals were allowed a 30-min period to completely recover from the anesthesia and were then subjected to intracolonic infusion of acetic acid (1.5 mL, 0.6%). An additional 30-min period was allowed for sensitization of the colon. […] The protocol for colorectal distension was initiated 30-min post drug administration. After a basal reading of the number of abdominal contractions with the balloon inserted but not distended, three consecutive 10-min lasting colorectal distensions at 15, 30, and 60 mmHg were applied at 10-min intervals. Colorectal sensitivity was evaluated by counting the number of reflex abdominal contractions (i.e. the visceromotor response) observed within each distension period.\nAcetic acid-induced colonic hypersensitivity in rats has been described by Langlois et al. and Plourde et al., referenced above.\nThe visceromotor behavioral response to colorectal distension was measured by counting the number of abdominal contractions recorded by a strain gauge sutured onto the abdominal musculature as previously described Gunter et al., referenced above. Colorectal distensions were carried out utilizing a 5 cm latex balloon catheter inserted into the colon via the anal canal. Constant pressure tonic distensions were performed in a graded manner, i.e., the pressure was increased to the desired level of 15, 30, or 60 mmHg and then maintained for a period of 10 minutes during which the number of abdominal contractions were recorded to measure the level of colonic sensation. Ten minute recovery periods were allowed following each distension."}, "[3]": {"biological_target": "T3, dopamine reuptake ([^3H]DA uptake) (Rattus norvegicus, UniProt P23977)", "T3 construct": "the [^3H]DA uptake assays are performed on striatal synaptosomes; from tissue; host or cells: rat striatal synaptosomes (P2 fraction)", "T3 sequence (P23977 whole entry)": "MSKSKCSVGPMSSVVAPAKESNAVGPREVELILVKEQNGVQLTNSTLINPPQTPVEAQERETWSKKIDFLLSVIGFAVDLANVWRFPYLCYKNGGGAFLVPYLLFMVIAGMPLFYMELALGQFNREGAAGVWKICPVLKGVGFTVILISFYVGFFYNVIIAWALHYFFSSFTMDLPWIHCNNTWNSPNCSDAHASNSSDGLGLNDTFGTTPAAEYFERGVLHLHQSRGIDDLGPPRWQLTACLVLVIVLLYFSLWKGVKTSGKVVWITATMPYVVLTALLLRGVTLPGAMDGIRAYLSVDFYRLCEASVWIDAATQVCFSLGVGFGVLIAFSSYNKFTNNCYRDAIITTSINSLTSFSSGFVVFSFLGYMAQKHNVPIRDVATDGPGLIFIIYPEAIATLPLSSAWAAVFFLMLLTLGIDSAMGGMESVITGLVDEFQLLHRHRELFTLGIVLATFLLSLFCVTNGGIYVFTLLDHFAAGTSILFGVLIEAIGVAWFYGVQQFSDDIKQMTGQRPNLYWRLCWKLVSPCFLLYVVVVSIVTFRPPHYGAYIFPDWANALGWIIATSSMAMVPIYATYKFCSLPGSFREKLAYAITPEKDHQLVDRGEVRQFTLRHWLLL", "conditions": "synaptosomes from rat striatal tissue; read-out: Ki, inhibition of [3H]DA uptake; cited from earlier work"}, "[4]": {"biological_target": "T4, serotonin reuptake ([^3H]5-HT uptake) (Rattus norvegicus, UniProt P31652)", "T4 construct": "The [^3H]5-HT uptake assays are performed on the cortical, hypothalamic and hippocampal synaptosomes; from tissue; host or cells: rat hypothalamic, cortical and hippocampal synaptosomes (P2 fraction)", "T4 sequence (P31652 whole entry)": "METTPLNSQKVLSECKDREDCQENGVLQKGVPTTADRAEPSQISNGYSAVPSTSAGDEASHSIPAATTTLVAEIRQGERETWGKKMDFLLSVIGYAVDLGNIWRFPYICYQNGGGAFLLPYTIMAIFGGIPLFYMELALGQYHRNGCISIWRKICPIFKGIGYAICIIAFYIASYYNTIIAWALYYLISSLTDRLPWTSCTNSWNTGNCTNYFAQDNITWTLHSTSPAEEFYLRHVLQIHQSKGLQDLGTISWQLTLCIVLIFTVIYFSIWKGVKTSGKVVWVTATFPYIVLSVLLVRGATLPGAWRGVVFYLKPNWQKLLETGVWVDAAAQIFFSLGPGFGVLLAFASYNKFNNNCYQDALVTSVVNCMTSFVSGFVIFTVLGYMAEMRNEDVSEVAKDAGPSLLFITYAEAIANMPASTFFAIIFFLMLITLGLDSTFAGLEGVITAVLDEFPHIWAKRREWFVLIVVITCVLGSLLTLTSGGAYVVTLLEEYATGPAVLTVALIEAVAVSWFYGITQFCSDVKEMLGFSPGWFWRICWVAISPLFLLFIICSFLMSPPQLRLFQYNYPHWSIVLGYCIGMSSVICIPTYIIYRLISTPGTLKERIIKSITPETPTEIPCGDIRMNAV", "conditions": "cited from earlier work"}, "male F-344 rats": {"tested_on": "male F-344 rats", "experiment": "Small Intestinal Transit (SIT) Rodent Model, charcoal meal", "type": "in vivo, rat", "conditions": "for Small intestinal transit, Mean (% of total small intestinal length): 15 min after charcoal meal", "description": "Specifically, the effects of MCI-225, the reference compounds (ondansetron and nisoxetine) and the vehicle on small intestinal transit were investigated in rats under control conditions. Following an overnight fast, rats were brought to the laboratory in their home cages and received an i.p. injection of one of the following: MCI-225, 100% propylene glycol (vehicle), ondansetron, nisoxetine and a combination of ondansetron and nisoxetine. Control rats received no treatment. The treated rats were placed back in the home cages and after 30 min, were fed a 2 mL charcoal meal via an oral gavage. Small intestinal transit was measured following 15 min test-period. Each rat was placed briefly in a glass chamber with IsoFlo for anesthesia and sacrificed. The stomach and the small intestine were removed and the total length of the small intestine was measured. Transit was then measured as the distance that the charcoal meal had traveled along the small intestine and expressed as % of the total length. Animals were randomly assigned to experimental groups and experiments were performed as illustrated in Table 3.\nSmall intestinal transit in rats was investigated by the passage of a charcoal meal along the small intestine during a defined time period (15-min). The animals were deprived of food for 12-16 hrs prior to the experiments. Rats were given a charcoal meal (a mixture of charcoal, gum arabic, and distilled water) as a 2 mL oral gavage and were sacrificed after a 15-min test period. The distance traveled by the charcoal meal was quantified as a percent of the small intestinal length, using the following equation:\nTransit (%)=cm traveled by meal/cm total small intestinal length×100\nSmall intestinal transit was evaluated in relative units (%) of the total intestinal length in the following groups receiving different drug treatment: naïve (untreated), vehicle (propylene glycol, 200 μL i.p.), MCI-225 (3, 10 and 30 mg/kg, i.p.), nisoxetine (3, 10 and 30 mg/kg, i.p.), ondansetron (1, 5 and 10 mg/kg, i.p.) and a combination of nisoxetine (10 mg/kg, i.p.) and ondansetron (5 mg/kg, i.p.). A total of 61 experiments were performed (4-6 rats per group)."}, "[5]": {"tested_on": "male F-344 rats subjected to water avoidance stress", "experiment": "Water Avoidance Stress (WAS) model, fecal pellet output", "type": "in vivo, rat", "conditions": "for number of fecal pellets produced during 1 hour of WAS compared to vehicle: all doses i.p. (MCI-225, nisoxetine 3, 10, 30 mg/kg; ondansetron 1, 5, 10 mg/kg)", "description": "The model used in this example provided a method of determining the ability of MCI-225 to normalize accelerated colonic transit induced by water avoidance stress (WAS). […] The model provides a method of evaluating the effectiveness of a compound in a specific patient group of IBS sufferers where stress induced colonic motility is considered a significant contributing factor. All rats underwent sham stress (1-hour in stress chamber without water) for 2-4 consecutive days before undergoing WAS (sham was performed until rats produced 0-1 pellet per hour for 2 consecutive days). At the end of the 1-hour stress period, the fecal pellets were counted and recorded. WAS causes an acceleration of colonic transit, which can be quantified by counting the number of fecal pellets, produced during the stress procedure. Rats were placed for 1-hour into a stress chamber onto a raised platform 7.5 cm×7.5 cm×9 cm (L×W×H) in the center of a stress chamber filled with room temperature water 8 cm in depth. The stress chamber was constructed from a rectangular plastic tub (40.2×60.2×31.2 cm). […] Ondansetron was supplied from APIN Chemicals LTD. […] MCI-225 was provided by Mitsubishi Pharma Corp. All drugs were dissolved in a vehicle of 100% propylene glycol (1,2-propanediol) by sonicating for a period of 10 minutes. Propylene glycol was obtained from Sigma Chemical Co. […] All drugs and the vehicle were administered as an i.p. injection in a volume of 0.2 mL."}}, "note": "“And” between values parts separate entries of the source, which are not always exact repeats. Equal values may be shown once. Read-outs that look alike come from different tables or passages of the source.", "data": [{"smiles": "Cc1cc2c(-c3ccccc3F)nc(N3CCNCC3)nc2s1", "note": "[MCI-225, 4-(2-fluorophenyl)-6-methyl-2-(1-piperazinyl)thieno[2,3-d]pyrimidine]", "values": [{"measurement": "Ki", "setting": "[1]; synaptosomes from rat cortical tissue", "result": 0.696, "unit": "nM"}, {"measurement": "Ki", "setting": "[1]; synaptosomes from rat hypothalamic tissue", "result": 35, "unit": "nM"}, {"measurement": "Ki", "setting": "5-HT3 receptor", "result": "< 100", "unit": "nM"}, {"measurement": "animals in which the visceromotor response to CRD was eliminated", "setting": "[2]; Example 1, 30 mg/kg i.p., n=6, CRD 15, 30, 60 mmHg", "result": 50, "unit": "%"}, {"measurement": "Ki", "setting": "[3]", "result": 14800, "unit": "nM"}, {"measurement": "Ki", "setting": "[4]; synaptosomes from rat cortical tissue, read-out: Ki, inhibition of [3H]5-HT uptake", "result": 1070, "unit": "nM"}, {"measurement": "Ki", "setting": "[4]; synaptosomes from rat hippocampal tissue, read-out: Ki, inhibition of serotonin uptake", "result": 244, "unit": "nM"}, {"measurement": "Ki", "setting": "[4]; synaptosomes from rat hypothalamic tissue, read-out: Ki, inhibition of [3H]5-HT uptake", "result": 491, "unit": "nM"}, {"measurement": "Small intestinal transit, Mean (% of total small intestinal length)", "setting": "male F-344 rats; 3 mg/kg i.p.", "result": 30.1, "unit": "%"}, {"measurement": "Small intestinal transit, Mean (% of total small intestinal length)", "setting": "male F-344 rats; 10 mg/kg i.p.", "result": "4.2±2.6% and 4.2%"}, {"measurement": "Small intestinal transit, Mean (% of total small intestinal length)", "setting": "male F-344 rats; 30 mg/kg i.p.", "result": 8.8, "unit": "%"}]}, {"smiles": "CNCCC(Oc1ccccc1OC)c1ccccc1", "note": "(stereo not drawn) [Nisoxetine]", "values": [{"measurement": "behavior in the home cage during the experiments", "setting": "[2]; Example 2, 30 mg/kg i.p.", "result": "increased exploratory behavior"}, {"measurement": "visceromotor response (number of abdominal contractions) to CRD compared to vehicle", "setting": "[2]; Example 2", "result": "no significant effect"}, {"measurement": "number of fecal pellets produced during WAS compared to vehicle", "setting": "[5]; 10 and 30 mg/kg i.p.", "result": "significantly fewer"}, {"measurement": "number of fecal pellets produced during 1 hour of WAS compared to vehicle", "setting": "[5]", "result": "reduced by all doses"}, {"measurement": "Small intestinal transit, Mean (% of total small intestinal length)", "setting": "male F-344 rats; 3 mg/kg i.p.", "result": 40.3, "unit": "%"}, {"measurement": "Small intestinal transit, Mean (% of total small intestinal length)", "setting": "male F-344 rats; 10 mg/kg i.p.", "result": 38.6, "unit": "%"}, {"measurement": "animals with charcoal meal completely retained in the stomach", "setting": "male F-344 rats; 30 mg/kg i.p.", "result": "4 out of 5"}, {"measurement": "small intestinal transit", "setting": "male F-344 rats; 30 mg/kg i.p.", "result": "almost completely inhibited"}, {"measurement": "Small intestinal transit, Mean (% of total small intestinal length)", "setting": "male F-344 rats; 30 mg/kg i.p.", "result": 4.7, "unit": "%"}, {"measurement": "small intestinal transit", "setting": "male F-344 rats; 3 or 10 mg/kg i.p.", "result": "tendency to decrease"}]}, {"smiles": "Cc1nccn1CC1CCc2c(c3ccccc3n2C)C1=O", "note": "(stereo not drawn) [Ondansetron]", "values": [{"measurement": "visceromotor response (number of abdominal contractions) to CRD compared to vehicle", "setting": "[2]; Example 2", "result": "significant dose-dependent inhibition"}, {"measurement": "changes in behavioral activity of the rats", "setting": "[2]; Example 2, following treatment 1, 5 or 10 mg/kg i.p.", "result": "No significant changes"}, {"measurement": "responses to moderate and high intraluminal pressure", "setting": "[2]; Example 2, highest dose 10 mg/kg i.p., 30 and 60 mmHg, responses not abolished", "result": "reduced these responses to levels characteristic for naïve non-sensitized rats"}, {"measurement": "number of fecal pellets produced during 1 hour of WAS compared to vehicle", "setting": "[5]", "result": "significantly less"}, {"measurement": "Small intestinal transit, Mean (% of total small intestinal length)", "setting": "male F-344 rats; 1 mg/kg i.p.", "result": 27.6, "unit": "%"}, {"measurement": "Small intestinal transit, Mean (% of total small intestinal length)", "setting": "male F-344 rats; 5 mg/kg i.p.", "result": 32.1, "unit": "%"}, {"measurement": "Small intestinal transit, Mean (% of total small intestinal length)", "setting": "male F-344 rats; 10 mg/kg i.p.", "result": 18.4, "unit": "%%"}, {"measurement": "small intestinal transit compared to vehicle", "setting": "male F-344 rats; across doses i.p. (MCI-225 3, 10, 30 mg/kg; ondansetron 1, 5, 10 mg/kg)", "result": "significant reduction"}, {"measurement": "advance of the charcoal meal from the stomach into the small intestine", "setting": "male F-344 rats; doses tested i.p.", "result": "a portion of the charcoal meal was always found to advance"}]}]}
